From patent publication US20240058243A1, “A METHOD FOR FIGHTING MICROORGANISMS USING MENTHOL DERIVATIVES” (priority 2020, published 2024)
Values after ≈ are worked out from the molar mass of the structure shown. Read-outs that look alike come from different tables or passages of the source. Blank lines part the entries; values can stand above or below the compound they belong to.

Columns and labels:
Candida albicans = assay: Minimum inhibitory concentration, pure culture; assay type: cell-based
Description: (§1) Antimicrobial activity was also investigated with pure cultures for three different cooling compounds. The results of Triclosan, a well-known antimicrobial, are shown for comparison.

Corynebacterium xerosis = assay: Minimum inhibitory concentration, pure culture; assay type: cell-based
Description: as §1

Staphylococcus aureus = assay: Minimum inhibitory concentration, pure culture; assay type: cell-based
Description: as §1

[1] = tested on: Staphylococcus epidermidis; assay: Minimum inhibitory concentration, pure culture; assay type: cell-based
Description: as §1

Staphylococcus hominis = assay: Minimum inhibitory concentration, pure culture; assay type: cell-based
Description: as §1

Escherichia coli = assay: Minimum inhibitory concentration, pure culture; assay type: cell-based; details: for MIC: Escherichia coli, read-out: MIC Escherichia coli; for MIC Escherichia coli: Example 2 table (oral care)
Description: (§2) Antimicrobial activity was also investigated with pure cultures for three different cooling compounds. The results of Triclosan, a well-known antimicrobial, are shown for comparison. (Table 7):
(§3) The differential inhibition of microorganisms was also investigated with strains that typically are found in the oral cavity and that are related to oral diseases like gingivitis or caries. The cooling compounds show a better efficacy against Streptococcus mutans, Streptococcus salivarius, Porphyromonas gingivalis and Fusobacterium nucleatum in comparison to Escherichia coli.

Anaerococcus octavius = assay: Minimum inhibitory concentration, pure culture; assay type: cell-based
Description: as §2
It should be emphasized that Anaerococcus octavius represents the category of anaerobic odour causing bacteria. As a matter of fact, it is very hard to find antimicrobial materials which are active against these germs.

Fusobacterium nucleatum = assay: Minimum inhibitory concentration, oral cavity strains; assay type: cell-based; details: read-out: MIC Fusobacterium nucleatum
Description: as §3

Porphyromonas gingivalis = assay: as above; assay type: cell-based; details: read-out: MIC Porphyromonas gingivalis
Description: as §3

Streptococcus mutans = assay: as above; assay type: cell-based; details: read-out: MIC Streptococcus mutans
Description: as §3

Streptococcus salivarius = assay: as above; assay type: cell-based; details: Example 2 table (oral care)
Description: as §3

[2] = tested on: axillary microbiome in human axillary sweat; assay: Axillary microbiome ex vivo model: aerobic and anaerobic cell counts; assay type: cell-based
Description: (§4) The formation of sweat odour was investigated in an axillary microbiome ex vivo model that is based on human axillary sweat. […] This includes accumulation of volatile organic acids related to sweat odour (measured with GC-MS) and conversion of non-odorous precursor molecules to the respective odorous product (measured with HPLC) going along with the development of the typical sweat odour (assessed by a sensory panel).
(§5) The resulting sweat odour is the result of microbial activity. Those microorganisms that can metabolize the nutrients contained in the sweat can also increase their cell number. Untreated sweat starts with a cell number of about 10^7 cells/ml. These numbers increase by a magnitude during incubation, both for aerobic as well as anaerobic cell count. […] Anaerobic genera like Anaerococcus, Peptoniphilus, and Finegoldia are part of the natural axillary flora (Zeeuwen et al (2012), Troccaz et al (2015)). As some of their assigned species are known to be odour causing (Fuji 2014), the limitation of their increase is of high importance for the management of the typical sweat odor. […] Table 2 refers to change in microbiome composition.

[3] = tested on: axillary microbiome in human axillary sweat; assay: Axillary microbiome ex vivo model: microbiome composition; assay type: cell-based
Description: as §4, §5

[4] = tested on: sweat odour of human axillary sweat; assay: Axillary microbiome ex vivo model: sweat odour rating by sensory panel
Description: as §4

[5] = tested on: conversion of non-odorous precursor molecules in human axillary sweat; assay: Axillary microbiome ex vivo model: HPLC-MS of non-odourous precursors and odorous products; assay type: cell-based
Description: as §4

[6] = tested on: volatile organic acids in human axillary sweat; assay: Axillary microbiome ex vivo model: volatile organic acids (GC-MS); assay type: cell-based
Description: as §4

[7] = Table 7, read-out: MIC Candida albicans
[8] = Table 7, read-out: MIC Corynebacterium xerosis
[9] = Table 7, read-out: MIC Staphylococcus aureus
[10] = Table 7, read-out: MIC Staphylococcus epidermidis
[11] = Table 7, read-out: MIC Staphylococcus hominis
[12] = Table 7, read-out: MIC Anaerococcus octavius
[13] = 5,000 ppm, after 48 h incubation of fresh sweat

MIC (Candida albicans; [7]): > 1 µg/mL
MIC (Corynebacterium xerosis; [8]): 500 µg/mL
MIC (Staphylococcus aureus; [9]): 1 µg/mL
MIC [1, 10]: 500 µg/mL
MIC (Staphylococcus hominis; [11]): 500 µg/mL
MIC (Escherichia coli; Table 7): > 1 µg/mL
MIC Escherichia coli (Escherichia coli): >1.000 ppm
MIC (Anaerococcus octavius; [12]): 2.5 µg/mL
MIC (Fusobacterium nucleatum; Example 2 table (oral care)): 500 µg/mL
MIC (Porphyromonas gingivalis; Example 2 table (oral care)): 250 µg/mL
MIC (Streptococcus mutans; Example 2 table (oral care)): 500 µg/mL
MIC (Streptococcus salivarius): 500 µg/mL
Compound: CC(C)[C@@H]1CC[C@@H](C)CC12OCC(CO)O2 (mixture of isomers) [Frescolat ® MGA, Menthon Glyceryl Acetal]

MIC (Candida albicans; [7]): 1 µg/mL
MIC (Corynebacterium xerosis; [8]): 250 µg/mL
MIC (Staphylococcus aureus; [9]): 250 µg/mL
MIC [1, 10]: 500 µg/mL
MIC (Staphylococcus hominis; [11]): 250 µg/mL
MIC (Escherichia coli; Table 7): > 5 µg/mL
MIC Escherichia coli (Escherichia coli): >5.000 ppm
MIC (Anaerococcus octavius; [12]): 500 µg/mL
MIC (Fusobacterium nucleatum; Example 2 table (oral care)): 250 µg/mL
MIC (Porphyromonas gingivalis; Example 2 table (oral care)): 125 µg/mL
MIC (Streptococcus mutans; Example 2 table (oral care)): 125 µg/mL
MIC (Streptococcus salivarius): 500 µg/mL
Compound: CC(O)C(=O)O[C@@H]1C[C@H](C)CC[C@H]1C(C)C (stereo in doubt) [Frescolat ® ML, Menthyl Lactate]
Cell number development compared to untreated ([2]; 5000 ppm added to fresh sweat): slight reduction compared to untreated
Aerobic cell count [2, 13]: 6.85E+07 cells/ml
Anaerobic cell count [2, 13]: 1.08E+07 cells/ml
Abundance of anaerobic odour causing genera Anaerococcus, Finegoldia and Moraxella ([3]; 5000 ppm added to fresh sweat): inhibited in their abundance increase
Relative abundance of Raoultella, Corynebacterium and Staphylococcus versus untreated ([3]; 5000 ppm added to fresh sweat): same relative abundance as in the untreated sample
Relative abundance Anaerococcus ([3]; 5,000 ppm, after 48 h): 1.6%
Relative abundance Below 0.1% ([3]; 5,000 ppm, after 48 h): 1.1%
Relative abundance Citrobacter ([3]; 5,000 ppm, after 48 h): 11.7%
Relative abundance Corynebacterium ([3]; 5,000 ppm, after 48 h): 2.8%
Relative abundance Enterobacter ([3]; 5,000 ppm, after 48 h): 32.6%
Relative abundance Finegoldia ([3]; 5,000 ppm, after 48 h): 0.2%
Relative abundance Kluyvera ([3]; 5,000 ppm, after 48 h): 0.9%
Relative abundance Moraxella ([3]; 5,000 ppm, after 48 h): 0.0%
Relative abundance Propionibacterium ([3]; 5,000 ppm, after 48 h): 7.6%
Relative abundance Raoultella ([3]; 5,000 ppm, after 48 h): 39.1%
Relative abundance Staphylococcus ([3]; 5,000 ppm, after 48 h): 2.2%
Relative abundance Streptococcus ([3]; 5,000 ppm, after 48 h): 0.1%
Relative abundance Undefined ([3]; 5,000 ppm, after 48 h): 0.0%
Odour development in sensory analysis in comparison to untreated ([4]; 5000 ppm added to fresh sweat): clear reduction of odour development
Odor rating (smell intensity), mean ([4]; 5000 ppm, 48 h, mean of 8 panelists): 2.4
Formation of odorous products ([5]; 5000 ppm added to fresh sweat): drastically reduced formation
Concentration of non-odourous pre-cursour N-α-3-hydroxy-3-methylhexanoyl-L-glutamine (HMHA-Gln) ([5]; 5000 ppm, 48 h): 102.24 ppm
Concentration of non-odourous pre-cursour N-α-[(2E)-3-methyl-2-hexenoyl]-L-glutamine (3M2H-Gln) ([5]; 5000 ppm, 48 h): 10.42 ppm
Concentration of odorous products, line N-α-3-hydroxy-3-methylhexanoyl-L-glutamine (HMHA-Gln) ([5]; 5000 ppm, 48 h): 0.43 ppm
Concentration of odorous products, line N-α-[(2E)-3-methyl-2-hexenoyl]-L-glutamine (3M2H-Gln) ([5]; 5000 ppm, 48 h): 1.69 ppm
Formation of volatile organic acids ([6]; 5000 ppm added to fresh sweat): drastically reduced formation
Concentration of 2-Methylbutyric Acid ([6]; 5000 ppm, 48 h): 0 ppm
Concentration of Acetic Acid ([6]; 5000 ppm, 48 h): 11.1 ppm
Concentration of Butyric Acid ([6]; 5000 ppm, 48 h): 0.3 ppm
Concentration of Capric Acid ([6]; 5000 ppm, 48 h): 1.3 ppm
Concentration of Capronic Acid ([6]; 5000 ppm, 48 h): 0.6 ppm
Concentration of Caprylic Acid ([6]; 5000 ppm, 48 h): 1.5 ppm
Concentration of Lauric Acid ([6]; 5000 ppm, 48 h): 1.7 ppm
Concentration of Propanoic Acid ([6]; 5000 ppm, 48 h): 2.2 ppm
Concentration of Valeric Acid ([6]; 5000 ppm, 48 h): 0 ppm

MIC (Candida albicans; [7]): > 1 µg/mL
MIC (Corynebacterium xerosis; [8]): 500 µg/mL (≈ 2050 µM)
MIC (Staphylococcus aureus; [9]): 500 µg/mL (≈ 2050 µM)
MIC (Staphylococcus hominis; [11]): 500 µg/mL (≈ 2050 µM)
MIC (Escherichia coli; Table 7): > 1 µg/mL
MIC Escherichia coli (Escherichia coli): >1.000 ppm
MIC (Anaerococcus octavius; [12]): 1 µg/mL (≈ 4.09 µM)
MIC (Fusobacterium nucleatum; Example 2 table (oral care)): 16 µg/mL (≈ 65.5 µM)
MIC (Porphyromonas gingivalis; Example 2 table (oral care)): 125 µg/mL (≈ 512 µM)
MIC (Streptococcus mutans; Example 2 table (oral care)): 250 µg/mL (≈ 1020 µM)
MIC (Streptococcus salivarius): 500 µg/mL (≈ 2050 µM)
Compound: CC(C)[C@@H]1CC[C@@H](C)C[C@H]1OC(=O)OCCO [Frescolat ® MGC, Menthol Ethylene Glycol Carbonate]

Compound: Oc1cc(Cl)ccc1Oc1ccc(Cl)cc1Cl [Triclosan, reference compound]
MIC (Candida albicans; read-out: MIC Candida albicans): 16 µg/mL (≈ 55.3 µM)
MIC (Corynebacterium xerosis; read-out: MIC Corynebacterium xerosis): 8 µg/mL (≈ 27.6 µM)
MIC (Staphylococcus aureus; read-out: MIC Staphylococcus aureus): 2 µg/mL (≈ 6.91 µM)
MIC ([1]; read-out: MIC Staphylococcus epidermidis): 4 µg/mL (≈ 13.8 µM)
MIC (Staphylococcus hominis; read-out: MIC Staphylococcus hominis): 4 µg/mL (≈ 13.8 µM)
MIC (Escherichia coli): > 1 µg/mL
MIC Escherichia coli (Escherichia coli): >1 ppm
MIC (Anaerococcus octavius; read-out: MIC Anaerococcus octavius): > 500 µg/mL
MIC (Fusobacterium nucleatum): 8 µg/mL (≈ 27.6 µM)
MIC (Porphyromonas gingivalis): 1 µg/mL (≈ 3.45 µM)
MIC (Streptococcus mutans): 8 µg/mL (≈ 27.6 µM)
